In patent publication US7612211B2, “Benzimidazole TRPV1 inhibitors” (Janssen Pharmaceutica N.V., priority 2006, dated 2009):

Molecular target: T1, hTRPV1 (Homo sapiens, UniProt Q8NER1)
T1 construct: expressed in transfected cells; host or cells: HEK293
Assay: Human TRPV1 (hTRPV1) functional assay, FLIPR intracellular Ca2+, capsaicin challenge
Format: cell-based
Conditions: HEK293 cells expressing hTRPV1, capsaicin 0.030 μM challenge; for inhibition at 0.5 µM: test concentration of 0.5 μm, read-out: percent inhibition (symbol a); for inhibition at 0.2 µM: test concentration of 0.2 μm, read-out: percent inhibition (symbol b); for IC50: derived from a variety of test concentrations, read-out: IC50 value (symbol c)
Protocol: The functional activity of the test compounds was determined by measuring changes in intracellular calcium concentration using a Ca^++-sensitive fluorescent dye and FLIPR™ technology. Increases in Ca^++ concentration were readily detected upon challenge with capsaicin.
HEK293 cells expressing hTRPV1 were grown on poly-D-lysine coated 384 well black-walled plates (BD 354663) and 1 day later loaded with Calcium 3 Dye for 35 min at 37° C., 5% CO2 and then for 25 min at room temperature, and subsequently tested for agonist-induced increases in intracellular Ca^2+ levels using FLIPR™ technology. Cells were challenged with test compounds (at varying concentrations) and intracellular Ca^2+ was measured for 5 min prior to the addition of capsaicin to all wells to achieve a final concentration of 0.030 μM eliciting ˜80% maximal response.
EC50 or IC50 values were determined from concentration-response studies, which were generated using the average of quadruplicate wells for each data point. The symbol “a” represents percent inhibition obtained at a test concentration of 0.5 μm; the symbol “b” represents percent inhibition obtained at a test concentration of 0.2 μm; the symbol “c” represents an IC50 value (nM) derived from a variety of test concentrations. The term “NA” means that the result is not applicable for a particular compound.

T1 sequence (Q8NER1 whole entry): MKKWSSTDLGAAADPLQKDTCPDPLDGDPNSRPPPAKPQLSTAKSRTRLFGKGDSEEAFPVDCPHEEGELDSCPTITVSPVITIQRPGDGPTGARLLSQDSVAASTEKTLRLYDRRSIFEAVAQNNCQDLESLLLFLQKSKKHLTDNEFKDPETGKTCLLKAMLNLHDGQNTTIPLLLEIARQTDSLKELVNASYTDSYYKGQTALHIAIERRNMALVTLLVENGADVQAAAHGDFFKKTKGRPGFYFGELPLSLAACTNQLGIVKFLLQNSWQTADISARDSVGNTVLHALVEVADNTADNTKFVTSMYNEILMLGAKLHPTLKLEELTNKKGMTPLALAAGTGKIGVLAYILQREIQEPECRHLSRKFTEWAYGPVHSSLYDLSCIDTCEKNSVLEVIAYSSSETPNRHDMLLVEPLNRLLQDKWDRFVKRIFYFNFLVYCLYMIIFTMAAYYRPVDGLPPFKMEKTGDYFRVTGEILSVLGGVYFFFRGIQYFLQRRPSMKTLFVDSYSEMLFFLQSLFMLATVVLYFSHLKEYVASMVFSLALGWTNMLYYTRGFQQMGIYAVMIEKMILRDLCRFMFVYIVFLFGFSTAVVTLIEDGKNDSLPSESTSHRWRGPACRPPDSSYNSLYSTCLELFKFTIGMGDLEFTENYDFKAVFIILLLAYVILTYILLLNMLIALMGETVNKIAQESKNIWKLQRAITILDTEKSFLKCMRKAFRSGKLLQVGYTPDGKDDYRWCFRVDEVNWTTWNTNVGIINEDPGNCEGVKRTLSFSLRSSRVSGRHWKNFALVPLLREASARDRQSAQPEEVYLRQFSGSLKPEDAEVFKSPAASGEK

Row | Structure (SMILES) | inhibition at 0.5 µM [%] | inhibition at 0.2 µM [%] | IC50 [µM]
1 | CS(=O)(=O)c1ccccc1-c1ccc2[nH]c(COc3ccc(Cl)cc3Cl)nc2c1 [Cpd 64, 2-(2,4-dichloro-phenoxymethyl)-5-(2-methanesulfonyl-phenyl)-1H-benzoimidazole] | – | 58 | –
2 | CS(=O)(=O)c1ccccc1-c1ccc2[nH]c(COc3cccc(Br)c3)nc2c1 [Cpd 60, 2-(3-bromo-phenoxymethyl)-5-(2-methanesulfonyl-phenyl)-1H-benzoimidazole] | – | 49 | –
3 | CN(C)S(=O)(=O)c1ccccc1-c1ccc2[nH]c(C(F)(F)Oc3ccc(C(F)(F)F)cc3)nc2c1 [Cpd 141, 2-{2-[difluoro-(4-trifluoromethyl-phenoxy)-methyl]-1H-benzoimidazol-5-yl}-N,N-dimethyl-benzenesulfonamide] | 99 | – | 0.083
4 | NS(=O)(=O)c1ccccc1-c1ccc2[nH]c(COc3ccc(Cl)c(C(F)(F)F)c3)nc2c1 [Cpd 30, 2-[2-(4-chloro-3-trifluoromethyl-phenoxymethyl)-1H-benzoimidazol-5-yl]-benzenesulfonamide] | 99 | – | 0.013
5 | NS(=O)(=O)c1ccccc1-c1ccc2[nH]c(CNc3ccc(C(F)(F)F)cc3)nc2c1 [Cpd 47, 2-{2-[(4-trifluoromethyl-phenylamino)-methyl]-1H-benzoimidazol-5-yl}-benzenesulfonamide] | – | 46 | –
6 | NS(=O)(=O)c1ccccc1-c1ccc2[nH]c(COc3ccccc3F)nc2c1 [Cpd 3, 2-[2-(2-fluoro-phenoxymethyl)-1H-benzoimidazol-5-yl]-benzenesulfonamide] | 43 | – | –
7 | CS(=O)(=O)c1ccccc1-c1ccc2[nH]c(COc3ccc4c(c3)OCO4)nc2c1 [Cpd 92, 2-(benzo[1,3]dioxol-5-yloxymethyl)-5-(2-methanesulfonyl-phenyl)-1H-benzoimidazole] | – | 76 | 0.086
8 | COc1cccc(OCc2nc3cc(-c4ccccc4S(C)(=O)=O)ccc3[nH]2)c1 [Cpd 97, 5-(2-methanesulfonyl-phenyl)-2-(3-methoxy-phenoxymethyl)-1H-benzoimidazole] | – | 42 | –
9 | CS(=O)(=O)c1ccccc1-c1ccc2[nH]c(COc3ccc(F)c(F)c3F)nc2c1 [Cpd 70, 5-(2-methanesulfonyl-phenyl)-2-(2,3,4-trifluoro-phenoxymethyl)-1H-benzoimidazole] | – | 33 | –
10 | CS(=O)(=O)c1ccccc1-c1ccc2[nH]c(COc3ccccc3C(F)(F)F)nc2c1 [Cpd 74, 5-(2-methanesulfonyl-phenyl)-2-(2-trifluoromethyl-phenoxymethyl)-1H-benzoimidazole] | – | 60 | –
11 | CS(=O)(=O)c1ccccc1-c1ccc2[nH]c(COc3ccccc3Cl)nc2c1 [Cpd 57, 2-(2-chloro-phenoxymethyl)-5-(2-methanesulfonyl-phenyl)-1H-benzoimidazole] | – | 14 | –
12 | CS(=O)(=O)c1ccccc1-c1ccc2[nH]c(COc3ccccc3F)nc2c1 [Cpd 54, 2-(2-fluoro-phenoxymethyl)-5-(2-methanesulfonyl-phenyl)-1H-benzoimidazole] | – | 4 | –
13 | NS(=O)(=O)c1ccccc1-c1ccc2[nH]c(COc3ccc(C4CC4)cc3)nc2c1 [Cpd 164, 2-[2-(4-cyclopropyl-phenoxymethyl)-1H-benzoimidazol-5-yl]-benzenesulfonamide] | – | 97 | 0.025
14 | NS(=O)(=O)c1ccccc1-c1ccc2[nH]c(COc3ccc(Cl)c(Cl)c3)nc2c1 [Cpd 29, 2-[2-(3,4-dichloro-phenoxymethyl)-1H-benzoimidazol-5-yl]-benzenesulfonamide] | 98 | – | 0.022
15 | CC(=O)c1ccc(OCc2nc3cc(-c4ccccc4S(C)(=O)=O)ccc3[nH]2)cc1 [Cpd 79, 1-{4-[5-(2-methanesulfonyl-phenyl)-1H-benzoimidazol-2-ylmethoxy]-phenyl}-ethanone] | – | 61 | –
16 | CS(=O)(=O)c1ccccc1-c1ccc2[nH]c(COc3cc(C(F)(F)F)cc(C(F)(F)F)c3)nc2c1 [Cpd 73, 2-(3,5-bis-trifluoromethyl-phenoxymethyl)-5-(2-methanesulfonyl-phenyl)-1H-benzoimidazole] | – | 33 | –
17 | CS(=O)(=O)c1ccccc1-c1ccc2[nH]c(COc3ccc4c(c3)CCC4)nc2c1 [Cpd 91, 2-(indan-5-yloxymethyl)-5-(2-methanesulfonyl-phenyl)-1H-benzoimidazole] | – | 99 | 0.021
18 | CS(=O)(=O)c1ccccc1-c1ccc2[nH]c(COc3ccc(C4CC4)cc3)nc2c1 [Cpd 167, 2-(4-cyclopropyl-phenoxymethyl)-5-(2-methanesulfonyl-phenyl)-1H-benzoimidazole] | – | 98 | 0.007
19 | NS(=O)(=O)c1ccc(C(F)(F)F)cc1-c1ccc2[nH]c(COc3ccc(C(F)(F)F)cc3)nc2c1 [Cpd 132, 4-trifluoromethyl-2-[2-(4-trifluoromethyl-phenoxymethyl)-1H-benzoimidazol-5-yl]-benzenesulfonamide] | 100 | – | 0.085

Further lines, results first:

Row | inhibition at 0.5 µM [%] | inhibition at 0.2 µM [%] | IC50 [µM] | Structure (SMILES)
20 | 18 | – | – | CC(O)c1cccc(-c2ccc3[nH]c(COc4ccc(C(F)(F)F)cc4)nc3c2)c1 (centres unmarked) [Cpd 111, 1-{3-[2-(4-trifluoromethyl-phenoxymethyl)-1H-benzoimidazol-5-yl]-phenyl}-ethanol]
21 | – | 97 | 0.008 | O=S(=O)(CCO)c1ccccc1-c1ccc2[nH]c(COc3ccc(C(F)(F)F)cc3)nc2c1 [Cpd 142, 2-{2-[2-(4-trifluoromethyl-phenoxymethyl)-1H-benzoimidazol-5-yl]-benzenesulfonyl}-ethanol]
22 | – | 98 | 0.007 | CC(C)(O)C(=O)c1ccccc1-c1ccc2[nH]c(COc3ccc(C(F)(F)F)cc3)nc2c1 [Cpd 147, 2-hydroxy-2-methyl-1-{2-[2-(4-trifluoromethyl-phenoxymethyl)-1H-benzoimidazol-5-yl]-phenyl}-propan-1-one]
23 | 7 | – | – | Nc1cccc(-c2ccc3[nH]c(COc4ccc(C(F)(F)F)cc4)nc3c2)c1 [Cpd 123, 3-[2-(4-trifluoromethyl-phenoxymethyl)-1H-benzoimidazol-5-yl]-phenylamine]
24 | 14 | – | – | CC(=O)Nc1ccc(-c2ccc3[nH]c(COc4ccc(C(F)(F)F)cc4)nc3c2)cc1 [Cpd 115, N-{4-[2-(4-trifluoromethyl-phenoxymethyl)-1H-benzoimidazol-5-yl]-phenyl}-acetamide]
25 | – | 38 | – | O=C(NCCO)c1ccccc1-c1ccc2[nH]c(COc3ccc(C(F)(F)F)cc3)nc2c1 [Cpd 152, N-(2-hydroxy-ethyl)-2-[2-(4-trifluoromethyl-phenoxymethyl)-1H-benzoimidazol-5-yl]-benzamide]
26 | 100 | – | 0.004 | CC(C)(O)c1ccccc1-c1ccc2[nH]c(COc3ccc(OC(F)(F)F)cc3)nc2c1 [Cpd 22, 2-{2-[2-(4-trifluoromethoxy-phenoxymethyl)-1H-benzoimidazol-5-yl]-phenyl}-propan-2-ol]
27 | 1 | – | – | CC(O)c1ccc(-c2ccc3[nH]c(COc4ccc(C(F)(F)F)cc4)nc3c2)cc1 (centres unmarked) [Cpd 112, 1-{4-[2-(4-trifluoromethyl-phenoxymethyl)-1H-benzoimidazol-5-yl]-phenyl}-ethanol]
28 | 21 | – | – | Nc1ccccc1-c1ccc2[nH]c(COc3ccc(C(F)(F)F)cc3)nc2c1 [Cpd 122, 2-[2-(4-trifluoromethyl-phenoxymethyl)-1H-benzoimidazol-5-yl]-phenylamine]
29 | 100 | – | 0.013 | NS(=O)(=O)c1ccccc1-c1ccc2[nH]c(COc3ccc(SC(F)(F)F)cc3)nc2c1 [Cpd 34, 2-[2-(4-trifluoromethylsulfanyl-phenoxymethyl)-1H-benzoimidazol-5-yl]-benzenesulfonamide]
30 | 98 | – | 0.016 | NS(=O)(=O)c1ccc(F)cc1-c1ccc2[nH]c(COc3ccc(C(F)(F)F)cc3)nc2c1 [Cpd 134, 4-fluoro-2-[2-(4-trifluoromethyl-phenoxymethyl)-1H-benzoimidazol-5-yl]-benzenesulfonamide]
31 | – | 21 | – | CN(CCO)C(=O)c1ccccc1-c1ccc2[nH]c(COc3ccc(C(F)(F)F)cc3)nc2c1 [Cpd 155, N-(2-hydroxy-ethyl)-N-methyl-2-[2-(4-trifluoromethyl-phenoxymethyl)-1H-benzoimidazol-5-yl]-benzamide]
32 | 85 | – | 0.0243 | COC(=O)c1ccccc1-c1ccc2[nH]c(COc3ccc(C(F)(F)F)cc3)nc2c1 [Cpd 127, 2-[2-(4-trifluoromethyl-phenoxymethyl)-1H-benzoimidazol-5-yl]-benzoic acid methyl ester]
33 | 98 | – | 0.0089 | CC(C)c1ccc(OCc2nc3cc(-c4ccccc4S(N)(=O)=O)ccc3[nH]2)cc1 [Cpd 28, 2-[2-(4-isopropyl-phenoxymethyl)-1H-benzoimidazol-5-yl]-benzenesulfonamide]
34 | 98 | – | 0.058 | CC(O)c1ccccc1-c1ccc2[nH]c(COc3ccc(C(F)(F)F)cc3)nc2c1 (centres unmarked) [Cpd 110, 1-{2-[2-(4-trifluoromethyl-phenoxymethyl)-1H-benzoimidazol-5-yl]-phenyl}-ethanol]
